The target of test [1] is purified recombinant human GAC (GLS1) (Homo sapiens (Human), UniProt O94925). Put plainly: GLS1 Enzymatic Activity Assay (dual-coupled enzymatic assay, resorufin/Amplex UltraRed readout).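 Further: glutamate from GAC coupled via glutamate oxidase and peroxidase to resorufin, read as fluorescence (ex 530, em 590 nm) kinetically or at 20 min, four-parameter logistic IC50 fit.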 Format: biochemical.
The test system of a further test is A549 cells. Put plainly: Proliferation Assay (A549 viability, Cell Titer Fluor, 72 hours). Format: cell-based. The note with it: Homo sapiens, A549, 72 h. The method, boiled down:
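Cell Titer Fluor fluorescence after 72 h compound treatment (0.5% DMSO, 37 °C, 5% CO2) of A549 cells plated 24 h earlier at 1000/well. Four-parameter logistic fitting gave IC50.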

The IC50 is the concentration that gives 50% inhibition. The EC50 is the concentration that produces a half-maximal response. The low end stands for higher potency in that assay, the high end for lower potency in that assay.

Sequence of purified recombinant human GAC (GLS1) (O94925 other isoform, or with tags, fused parts or gaps): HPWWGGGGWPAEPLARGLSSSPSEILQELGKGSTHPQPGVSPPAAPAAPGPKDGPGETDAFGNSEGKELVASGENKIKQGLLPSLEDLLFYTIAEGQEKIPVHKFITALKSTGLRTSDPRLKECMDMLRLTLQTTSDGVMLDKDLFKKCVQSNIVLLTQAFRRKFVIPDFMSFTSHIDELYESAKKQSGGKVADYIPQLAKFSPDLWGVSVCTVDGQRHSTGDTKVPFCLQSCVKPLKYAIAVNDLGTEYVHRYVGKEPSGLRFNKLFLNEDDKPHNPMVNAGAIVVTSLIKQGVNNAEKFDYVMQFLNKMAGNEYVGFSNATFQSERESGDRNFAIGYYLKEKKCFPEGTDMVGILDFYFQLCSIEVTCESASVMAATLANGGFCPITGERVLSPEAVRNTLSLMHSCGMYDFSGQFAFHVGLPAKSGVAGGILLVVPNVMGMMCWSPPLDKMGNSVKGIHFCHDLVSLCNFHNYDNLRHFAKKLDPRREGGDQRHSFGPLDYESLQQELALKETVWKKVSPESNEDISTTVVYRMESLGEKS

As to `CC(=O)Nc1ccc(CCCCc2nnc(C(=O)NCc3cc(OC(F)(F)F)ccc3F)s2)nn1` [Example 600, 5-(4-(6-acetamidopyridazin-3-yl)butyl)-N-(2-fluoro-5-(trifluoromethoxy)benzyl)-1,3,4-thiadiazole-2-carboxamide], the IC50 in test [1] was under 100 nM. Besides, the EC50 in the test with A549 cells is under 100 nM.
For `CC(=O)Nc1ccc(CCCCc2nnc(C(=O)NCc3cc(C(F)(F)F)ccn3)s2)nn1` [Example 601, 5-(4-(6-acetamidopyridazin-3-yl)butyl)-N-((4-(trifluoromethyl)pyridin-2-yl)methyl)-1,3,4-thiadiazole-2-carboxamide], the IC50 in test [1] was under 100 nM. Further, the EC50 in the test on A549 cells was under 100 nM.
For the molecule `CC(=O)Nc1ccc(CCCCc2nnc(C(=O)NCc3cncc(C(F)(F)F)c3)s2)nn1` [Example 602, 5-(4-(6-acetamidopyridazin-3-yl)butyl)-N-((5-(trifluoromethyl)pyridin-3-yl)methyl)-1,3,4-thiadiazole-2-carboxamide], in test [1], the IC50 was under 100 nM. The same molecule yielded an EC50 in the test with A549 cells of under 100 nM.
In the case of `CNC(=O)c1nnc(CCCCn2cc(C(=O)NCc3cc(C(F)(F)F)ccn3)nn2)s1` [Example 603, N-methyl-5-(4-(4-(((4-(trifluoromethyl)pyridin-2-yl)methyl)carbamoyl)-1H-1,2,3-triazol-1-yl)butyl)-1,3,4-thiadiazole-2-carboxamide], the half-maximal inhibitory concentration (IC50) in test [1] fell in the range of 500 to 5000 nM. In the test with A549 cells, this molecule gave an EC50 of over 5000 nM.
Turning to `CNC(=O)c1cn(CCCCc2ccc(NC(=O)Cc3cn(-c4cccc(OC(F)(F)F)c4)cn3)nn2)nn1` [Example 604, N-methyl-1-(4-(6-(2-(1-(3-(trifluoromethoxy)phenyl)-1H-imidazol-4-yl)acetamido)pyridazin-3-yl)butyl)-1H-1,2,3-triazole-4-carboxamide], in test [1], the half-maximal inhibitory concentration (IC50) was under 100 nM. The EC50 in the test with A549 cells was under 100 nM.
For the molecule `CNC(=O)c1cn(CCCCc2ccc(NC(=O)Cc3cc(-c4ccccc4C(F)(F)F)ccn3)nn2)nn1` [Example 605, N-methyl-1-(4-(6-(2-(4-(2-(trifluoromethyl)phenyl)pyridin-2-yl)acetamido)pyridazin-3-yl)butyl)-1H-1,2,3-triazole-4-carboxamide], the IC50 in test [1] was under 100 nM. The EC50 in the test with A549 cells is under 100 nM.

For the origin of these results see patent publication US10344025B2, “GLS1 inhibitors for treating disease” (Board of Regents, The University of Texas System, priority 2014, dated 2019).
